The text below walks through data of PubChem BioAssay (NCI).

Holding throughout (assay): inhibition of tumour cell growth, NCI panel, 48 h
Experiment [1] has as its system A498 renal.
The subject of experiment [2] is HCT-15 colon.
For experiment [3], the system named is HCC-2998 colon.
Experiment [4] deals with RXF 393 renal.
Experiment [5] has as its system SF-295 CNS.
Experiment [6] concerns K-562 leukemia.
Experiment [7] has as its system SR leukemia.
Experiment [8] relates to NCI-H522 lung.
Experiment [9] relates to M14 melanoma.
Experiment [10] concerns CAKI-1 renal.

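Growth conditions: 96-well plates. Treatment: test compound, 48 hours, 5 concentrations. Analysis: linear interpolation between bracketing concentrations; unreached endpoints set to highest concentration. GI50 = concentration required for 50% inhibition of growth. TGI: total growth inhibition.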

Take `CC1(C)N=C(N)N=C(N)N1c1cc(Cl)ccc1Cl`: the GI50 in experiment [1] was more than 100 µM; in experiment [2] it was more than 100 µM; in [3], more than 100 µM; in [4], more than 100 µM; in experiment [5], more than 100 µM; in experiment [6], 55.3 µM. The GI50 in experiment [7] was more than 100 µM; in experiment [8] it was 46 µM; in [9], more than 100 µM. The TGI in experiment [1], in [2], in [3], in [4], in experiment [5] and in experiment [6] was more than 100 µM throughout. The TGI in [7], in experiment [8] and in [9] was more than 100 µM throughout.
Consider `O=C(Nc1ccc(Cl)cc1)c1cc2ccccc2cc1O`, for which the GI50 in experiment [1] is 2.23 µM; in [2], 3.1 µM; in [3], 2.55 µM; in [4], 7.19 µM; in experiment [5], 2.96 µM; in experiment [6], 3.02 µM. In addition, the GI50 in experiment [7] was 3.93 µM; in experiment [8] it was 1.25 µM. For the same molecule, the TGI in [1] is 8.37 µM; in experiment [2], more than 100 µM; in [3], 7.65 µM; in [4] it was more than 100 µM; in [5] it was more than 100 µM; in experiment [6], more than 100 µM. The TGI in [7] was more than 100 µM; in [8] it was 6.88 µM.
Take `Cc1cc(C)nc(Nc2nc3ccc([N+](=O)[O-])cc3[nH]2)n1`: the TGI in [1], in experiment [10], in experiment [2], in [3], in experiment [5] and in [6] was more than 100 µM in each case. Also, the TGI in [7], in experiment [8] and in experiment [9] was more than 100 µM throughout.
With `COc1nc(C)cc2c(=O)n(-c3ccccc3)n(CCCN3CCN(c4ccc(Cl)cc4)CC3)c(=O)c12`, the GI50 is more than 50 µM in experiment [1]; 38.2 µM in experiment [10]; more than 50 µM in [2]; more than 50 µM in experiment [3]; 29.2 µM in experiment [5]; 35 µM in experiment [6]. Besides, the GI50 in experiment [7] is more than 50 µM; in experiment [8], 28.6 µM; in experiment [9], 46.6 µM. In addition, the TGI in [1], in experiment [10], in experiment [2], in experiment [3], in experiment [5] and in [6] was more than 50 µM each time. The TGI in [7], in experiment [8] and in [9] was more than 50 µM in each case.
Take `O=C(Oc1ccc(CCl)cc1)c1ccccc1`: the GI50 in [1] is 0.221 µM; in [10], 0.16 µM; in [2], 0.181 µM; in experiment [3], 0.189 µM; in experiment [4], 0.174 µM; in experiment [5] it was 0.185 µM. The GI50 in experiment [7] is 0.0594 µM; in experiment [8] it was 0.154 µM; in experiment [9], 0.125 µM. In addition, the TGI in experiment [1] worked out at 1.83 µM; in experiment [10] it was 0.303 µM; in experiment [2] it was 0.393 µM; in experiment [3], 0.385 µM; in [4], 0.332 µM; in experiment [5] it was 0.543 µM. The results for the TGI in experiment [7], in experiment [8] and in experiment [9] were 0.423 µM, 0.316 µM and 0.348 µM, respectively.
Take `COC(=O)c1ccc(N=NN(C)CO)cc1`: the TGI in [1], in experiment [2], in experiment [3], in experiment [4], in experiment [5] and in [6] was more than 100 µM throughout. For the same molecule, the TGI in experiment [7], in experiment [8] and in [9] was more than 100 µM in each case.
Take `Cn1c(=O)c2[nH]c(CS(=O)(=O)Cc3nc4c([nH]3)c(=O)n(C)c(=O)n4C)nc2n(C)c1=O`: the TGI in [1], in experiment [10], in experiment [2], in experiment [4], in experiment [5] and in experiment [6] was more than 100 µM in each case. The TGI in experiment [7], in [8] and in [9] was more than 100 µM each time.
Regarding `O=C(CCCn1ccnc1[N+](=O)[O-])NCCn1ccnc1`, the TGI in experiment [1], in experiment [10], in experiment [2], in experiment [3], in [5] and in experiment [6] was more than 100 µM throughout. Also, the TGI in [7], in experiment [8] and in experiment [9] was more than 100 µM each time.
For the molecule `CS(=O)c1ccc(COP(N)(=O)N(CCCl)CCCl)cc1` (configuration not stated), the TGI in [1], in experiment [10], in [3], in experiment [4], in experiment [5] and in experiment [6] was more than 100 µM in each case. Also, the TGI in experiment [7], in experiment [8] and in experiment [9] was more than 100 µM each time.
On to `OCCCCC#Cc1ccccc1C#Cc1ccccc1C(F)(F)F`, for which the GI50 was 5.79 µM in experiment [1]; 5.37 µM in experiment [10]; 3.5 µM in experiment [2]; 3.64 µM in experiment [3]; 3.39 µM in [4]; 2.34 µM in experiment [5]. Besides, the GI50 is 1.09 µM in [6], 0.475 µM in [7] and 9.13 µM in experiment [8]. The TGI in experiment [1] stood at 19.8 µM; in experiment [10], 17.9 µM; in experiment [2] it was 16 µM; in experiment [3], 13.9 µM; in [4] it was 12.5 µM; in experiment [5], 6.7 µM. The TGI worked out at 13.9 µM in experiment [6], 2.97 µM in experiment [7] and 22.7 µM in experiment [8].
In the case of `COc1ccc(/C=C\c2cc(OC)c(OC)c(OC)c2)cc1OCC(=O)Nc1nc2ccc(C(F)(F)F)cc2s1`, the GI50 was 2.81 µM in experiment [1]; 3.1 µM in experiment [10]; 3.24 µM in experiment [2]; 4.23 µM in experiment [3]; 3.36 µM in experiment [5]; 3.3 µM in experiment [6]. Moreover, the GI50 in experiment [7] is 3.35 µM; in experiment [8] it was 2.89 µM; in [9], 3.59 µM. Besides, the TGI is 18.6 µM in experiment [1]; more than 100 µM in experiment [10]; more than 100 µM in [2]; more than 100 µM in experiment [3]; more than 100 µM in [5]; more than 100 µM in experiment [6]. In addition, the TGI was more than 100 µM in experiment [7], 19.6 µM in [8] and more than 100 µM in experiment [9].
On to `C[C@]12CC[C@@H]3c4ccc(O)cc4CC[C@H]3[C@@H]1CC[C@@H]2NS(=O)(=O)Cc1ccc(Cl)cc1`, for which the GI50 in experiment [1] was 1.29 µM; in [10] it was 3.06 µM; in experiment [2], 2.33 µM; in [3] it was 2.99 µM; in experiment [4], 2.04 µM; in experiment [5] it was 1.72 µM. Moreover, the GI50 in experiment [6] was 2.99 µM; in [7], 3.69 µM; in experiment [9] it was 2.49 µM. Besides, the TGI came out at 3.87 µM in [1]; 11.2 µM in [10]; 7.76 µM in experiment [2]; 8.14 µM in experiment [3]; 6.06 µM in [4]; 3.56 µM in [5]. Also, the TGI in experiment [6] is 21.3 µM; in [7], more than 100 µM; in experiment [9] it was 6.25 µM.
Consider `CCOP(=O)(OCC)/C(C#N)=C/c1ccco1`, for which the TGI in experiment [1], in [10], in [2], in [3], in experiment [5] and in experiment [6] was more than 100 µM in each case. For the same molecule, the TGI in experiment [7], in [8] and in experiment [9] was more than 100 µM throughout.
Regarding `S=C(N/N=C/c1ccccn1)Nc1ccccn1`, the GI50 in experiment [1] is 1.62 µM; in experiment [10] it was 1.31 µM; in experiment [2] it was 0.575 µM; in [3], 2.19 µM; in experiment [4], 0.485 µM; in [6] it was 1.84 µM. The GI50 in [7] is 0.52 µM; in experiment [8] it was 0.241 µM. The TGI in [1] was 33.9 µM; in experiment [10], more than 100 µM; in experiment [2] it was more than 100 µM; in experiment [3], more than 100 µM; in experiment [4] it was 4.15 µM; in experiment [6] it was more than 100 µM. The TGI in experiment [7] is more than 100 µM; in experiment [8] it was 0.842 µM.
With `Cc1nc2cccc(NCc3ccc(C(=O)NO)cc3)c2c(=O)n1-c1ccccc1`, the GI50 in [1] is 1.7 µM; in [10], 1.67 µM; in experiment [2], 1.68 µM; in [3], 1.81 µM; in [4], 1.41 µM; in experiment [5], 1.76 µM. Moreover, the GI50 is 2.52 µM in experiment [6], 1.43 µM in experiment [7] and 1.29 µM in experiment [8]. Also, the TGI in [1] stood at 3.28 µM; in experiment [10], 3.62 µM; in experiment [2] it was 3.41 µM; in [3], 3.27 µM; in experiment [4], 2.79 µM; in experiment [5], 3.54 µM. Besides, the TGI is more than 100 µM in [6], more than 100 µM in experiment [7] and 2.61 µM in experiment [8].
